Reference: patent US20050132448A1, “Assay for beta cell toxic macrolides” (priority 2001, published 2005)
Entries after “also recorded” stand apart in the source; their conditions may differ.

Key:
[1] = test system: Balb/c mice; assay: Oral glucose tolerance test (OGTT); assay type: in vivo
Experimental: (§1) Male Balb/c mice were provided by the Monash University Central Animal House and Breeding Facility. The Monash University Department of Biochemistry Animal Ethics Committee approved all animal experimentation. Bafilomycin A1 (Sigma) was dissolved in 70% ethanol then diluted 1 in 10 with sterile phosphate buffered saline (PBS) to give a working stock of 4.8 μg/ml. Groups of between 3 and 9 mice as indicated were administered 12 μg per kilogram (body weight) bafilomycin A1 by intraperitoneal injection, which should achieve a final concentration in the blood of 275 nM bafilomycin A1 assuming a blood volume of 70 ml per kg for mice. […] Control mice received the ethanol/PBS carrier solution that lacked the inhibitor.
Groups of 6 control and 6 treated mice were fasted for 6-7 hours then anaesthetised by intraperitoneal injection of 35 mg/kg body weight of pentobarbitone (Nembutal) in order to minimise stress-induced variations in blood glucose. D-glucose (2 mg/g body weight) was delivered into the stomach by gavage as a 200 mg/ml solution. Blood glucose concentrations were determined for the fasted mice and at 15, 30, 60 and 120 minutes after glucose challenge as follows. Whole blood (approximately 60 μl) was collected from the tail vein and glucose concentrations were immediately determined by the glucose oxidase method using a YSI glucose analyser.

[2] = test system: P-ATPase; conditions: 275 nM; cited from earlier work
[3] = test system: NOD/lt mice; assay: Acceleration of diabetes onset in NOD mice; assay type: in vivo; conditions: 12 ng per gram i.p. on 5 consecutive days, 11-week-old female mice
Experimental: The NOD mouse develops spontaneous diabetes due to an autoimmune mediated destruction of the pancreatic islet β-cells. The characteristics of diabetes development in the NOD mouse parallel those in humans, making the NOD mouse a useful model of human Type 1 diabetes. Lymphocytic infiltrates in the pancreatic islets, termed insulitis, first develops in NOD mice soon after weaning at 4 weeks of age and hyperglycaemia first appears from 18 to 32 weeks of age. Bafilomycin A1 was administered to NOD mice to test whether the onset of hyperglycaemia was accelerated.
Eleven-week-old female NOD/lt mice were injected intraperitoneally with either 12 ng per gram body weight of bafilomycin A1 (10 mice) or phosphate buffered saline carrier solution (10 mice) on each of 5 consecutive days. Blood glucose was monitored weekly and diabetes defined as a blood glucose measurement greater than 11 mmol/L.

[4] = test system: Balb/c mice; assay: Long-term effects on random blood glucose, weight and islet morphology/size; assay type: in vivo
Experimental: FIG. 6 is a graphical representation of islet size following administration of bafilomycin A1. Reduced islet size is a long-term consequence of vacuolar ATPase inhibition. Pancreas morphology was examined at either 1, 7, 26 or 90 days after administration of bafilomycin A1. Islet size was determined by measuring the areas of the pancreas sections positive for staining with insulin antibody using MCID software. • Controls—223 islets from 12 mice • 1 day—81 islets from 3 mice • 7 days—125 islets from 3 mice • 26 days—90 islets from 4 mice • 90 days—81 islets from 4 mice • The black square represents the median, the dotted boxes 25-75th percentiles, bars the 10-90th percentiles, and outliers by dots.
The pancreas, liver, kidney and brain were dissected from anaesthetised mice and immediately fixed in formalin. Paraffin embedded sections (4 μm) were either stained with haemotoxylin and eosin or prepared for immunohistochemistry or indirect immunofluorescence. Immunostaining was performed on de-paraffinised sections as follows. The section was blocked in PBS containing 1% skim milk powder for 1 hour. Anti-insulin antiserum raised in Guinea pig (Dako) was diluted 1 in 50 in PBS 1% skim milk powder and left at room temperature for 60 minutes. Sections were washed in PBS and incubated with 1:200 dilution of horse radish peroxidase conjugated anti-guinea pig antiserum (Sigma) or a 1:400 dilution of FITC-conjugated anti-guinea pig serum (Sigma) for 1 hour. Endogenous peroxidase activity was inactivated using 0.5% hydrogen peroxide in methanol prior to the antibody incubations and bound HRP conjugated antibody was detected using Sigma FAST-DAB peroxidase tablets. FITC was detected using an Olympus epifluorescence microsocope and images were captured and analysed using a digital camera and MCID software.
The long-term effects of bafilomycin A1 on blood glucose concentrations and islet morphology were investigated in 4 mice treated twice with a weekly interval. Random blood glucose levels (RBG) and weight were determined, weekly over 90 days and results were compared to a control group of 3 mice treated with carrier solution.

[5] = test system: vATPase; conditions: 275 nM; cited from earlier work
[6] = biological target: T1, vATPase (Mus musculus, UniProt P63082); assay: V-ATPase activity assay on kidney homogenates of bafilomycin A1 treated mice; assay type: in vivo; conditions: for Bafilomycin A1 sensitive ATPase activity ± SD / total ATPase activity ± SD: kidney homogenate; for reduction of bafilomycin A1 sensitive ATPase activity: vs control
T1 construct: from tissue; host or cells: kidney of male Balb/c mice (crude homogenate, 700 x g supernatant)
Experimental: as §1
Seven control mice, 4 mice treated 1 day previously and 4 mice treated 7 days previously with bafilomycin A1 were anaesthetised with 35 mg per kg body weight pentobarbitone (Nembutal) and the kidneys removed and immediately frozen on dry ice and stored at −80° C. until processed. The kidneys were weighed then homogenised in liquid nitrogen using a mortar and pestle. 1 ml of 10 mM Tris-Cl pH 8.0 and 2 mM Mg2Cl containing protease inhibitors was then added and the tissue was further homogenised with 5 strokes of a dounce homogeniser. One ml of 0.5 M sucrose, 40 mM Tris-Cl pH 8, 2 mM Mg2Cl was then added to the homogenate and the suspension was clarified by centrifugation at 700×g for 10 minutes at 4° C. Supernatents containing soluble and membrane bound components were then assayed in duplicate for ATPase activity by incubating 100 μl of a 1:100 dilution of the tissue extract with 1 mM ATP in Tris buffered saline (TBS) for 30 minutes in the well of a microtitre plate in the presence or absence of 15 μl of a 1 μM solution of bafilomycin A1 in a final reaction volume of 200 μl. The inorganic phosphate released was measured using the one-step method of Chan et al., (1986), and absorbances were read in a microtitre plate reader at a wavelength of 660 nm. Results were corrected for background phosphate concentration and ATP autohydrolysis. The protein content of each kidney extract was determined using the Bradford reagent (Biorad).

T1 sequence (Q91V37 whole entry): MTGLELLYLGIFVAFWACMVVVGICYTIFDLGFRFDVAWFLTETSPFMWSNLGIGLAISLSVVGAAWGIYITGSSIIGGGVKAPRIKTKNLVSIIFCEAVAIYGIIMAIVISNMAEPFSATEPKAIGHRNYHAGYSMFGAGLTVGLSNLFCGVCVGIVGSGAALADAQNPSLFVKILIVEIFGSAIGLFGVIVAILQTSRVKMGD
T1 sequence (P63082 whole entry): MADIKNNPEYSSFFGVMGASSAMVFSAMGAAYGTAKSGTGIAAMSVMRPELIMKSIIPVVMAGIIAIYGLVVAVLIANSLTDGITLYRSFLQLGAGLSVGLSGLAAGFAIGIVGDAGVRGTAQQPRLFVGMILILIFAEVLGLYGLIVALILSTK

Question: What does the source list for CO/C1=C\C(C)=C\[C@@H](C)[C@@H](O)[C@@H](C)C/C(C)=C/C=C/[C@H](OC)[C@@H]([C@@H](C)[C@@H](O)[C@H](C)[C@@]2(O)C[C@@H](O)[C@H](C)[C@@H](C(C)C)O2)OC1=O [bafilomycin A1]?
Answer: blood glucose after 2 hours (OGTT) ([1]; 21 days after treatment): 4.2 ± 0.2 mM; blood glucose after 2 hours (OGTT) ([1]; seven days after administration): 4.1 ± 0.4 mM; fasting glucose levels ([1]; treated mice): no change; peak glucose level, 15 minutes after glucose challenge ([1]; twenty one days after administration): 12.5 ± 2.4 mM; inhibition of P-ATPase activity [2]: no detectable inhibition; onset of islet beta cell destruction and hyperglycaemia [3]: slight acceleration; total islet area as a percentage of the total area of pancreas ([4]; 1 day): 0.33%; islet size vs controls ([4]; 1 day treatment group): no differences; total islet area as a percentage of the total area of pancreas ([4]; 7 day treated mice): 0.30%; islet size vs controls ([4]; 7 day treatment group): no differences; total islet area as a percentage of the total area of pancreas ([4]; 26 day treated mice): 0.23%; morphology of kidney, liver, testes and brain ([4]; 90 day end-point): did not reveal any gross morphological changes; morphology of the islets ([4]; 90 day end-point, 2 doses): signs of fragmentation or neogenesis; total islet area as a percentage of the total area of pancreas ([4]; 90 day treated mice): 0.16%; islet size vs controls ([4]; treated 26 days previously): significant decrease; mean islet size ([4]; treated 26 days previously): 4900 μm2; islet size vs controls ([4]; treated 90 days previously): significant decrease; mean islet size ([4]; treated 90 days previously, 2 doses): 2800 μm^2; increased level of RBG first detectable after treatment ([4]; treated twice a week apart): 50 days; weight of treated vs control groups ([4]; treated twice a week apart, followed 90 days): did not differ significantly; also recorded: No significant difference; random blood glucose levels (RBG) vs controls ([4]; treated twice a week apart, weekly measurement for 90 days): small but significant increase; inhibition of in vitro vATPase activity [5]: sufficient to inhibit; kidney % of animal weight ± SD ([6]; 1 day after treatment): 0.90 ± 0.11%; weight or protein contents of the kidneys, treated vs control ([6]; 1 day and 7 days after treatment): no significant differences; kidney % of animal weight ± SD ([6]; 7 day after treatment): 0.90 ± 0.15%; Bafilomycin A1 sensitive ATPase activity ± SD ([6]; 1 day after 12 μg/kg i.p.): 0.80 ± 0.30 Nmol/min/mg protein; total ATPase activity ± SD ([6]; 1 day after 12 μg/kg i.p.): 4.4 ± 0.5 Nmol/min/mg protein; Bafilomycin A1 sensitive ATPase activity ± SD ([6]; 7 day after 12 μg/kg i.p.): 0.80 ± 0.30 Nmol/min/mg protein; total ATPase activity ± SD ([6]; 7 day after 12 μg/kg i.p.): 4.8 ± 0.8 Nmol/min/mg protein; reduction of bafilomycin A1 sensitive ATPase activity ([6]; kidney, 1 day after treatment): 50%; reduction of bafilomycin A1 insensitive ATPase activity ([6]; kidney, 1 day and 7 days after treatment): not in bafilomycin A1 insensitive ATPase activity; reduction of bafilomycin A1 sensitive ATPase activity ([6]; kidney, 7 days after treatment): 50%
